Reference: US20150018384A1, “TREATMENT FOR HIGH CHOLESTEROL” (FibroGen, Inc., priority 2012, published 2015)

Tests used:
[1] = target: PHD1 (Homo sapiens, UniProt Q96KS0); assay: HIF prolyl hydroxylase enzyme assay, PHD1; format: biochemical
Description: (§1) Suitable assay methods are well known in the art.

[2] = system: subjects with chronic kidney disease (CKD); assay: Phase 2b study in CKD subjects with anemia, Compound A vs placebo; format: in vivo, human
Experimental: The Hb target was 11 g/dL. The primary efficacy endpoint was the maximum change of Hb from baseline by Week 9.
Subjects were stratified by baseline (BL) total cholesterol (either >200 mg/dL or s 200 mg/dL) and analyzed for mean total cholesterol and LDL-C over the course of treatment.

[3] = system: Cholesterol Biosynthesis Genes in the Mouse Liver; assay: Microarray expression of cholesterol biosynthesis genes in mouse liver; format: in vivo; conditions: 90 mg/kg oral
Summary of the method: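 Mouse livers taken 4 h or 8 h post-treatment; RNA from paired animals pooled and hybridized to mouse 430A 2.0 arrays, GC-RMA processed, outlier arrays removed by PCA. Values are fold-change versus timepoint-matched vehicle controls from the same study; below 1.0 means reduced liver RNA.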

[4] = target: PHD3 (Homo sapiens, UniProt Q9H6Z9); assay: HIF prolyl hydroxylase enzyme assay, PHD3; format: biochemical
Description: as §1

[5] = system: DIO mice; assay: High cholesterol mouse model, diet induced obesity (DIO) mice; conditions: another study, 60 mg/kg three times a week for two weeks, n=10/group, FIG. 24
Description: Ten-week-old male apoE knockout mice (Jackson Laboratories, Bar Harbor, Me.) were fed a normal chow diet (0.02% cholesterol, 13.5% fat by weight; LabDiet). Ten-week-old male diet induced obese mice (DIO Mice, Jackson Laboratories, Bar Harbor, Me.) were fed a high fat diet (0.095% cholesterol, 60% fat by weight; ResearchDiets) starting at six-weeks-old. After 2 weeks of acclimatization, whole blood was collected for baseline measurement before administration of test reagents. All test reagents were administered orally by gavage needle three times a week for 2 weeks for the apoE mice, and three times a week for 4 weeks for the DIO mice. The animals were sacrificed at end of study. Whole blood was collected weekly in Heparin-tube by submandibular bleeding and isolated plasma was stored at −80° C. for measurement of total cholesterol.
DIO mice as described in Example 10 were used to test the effect of various compounds on cholesterol levels. Compound (60 mg/kg) or vehicle was administered to the mice (n=10/group) three times a week for four weeks. A statin compound (rosuvastatin) was also tested. Blood samples were collected at weekly and total cholesterol blood levels were tested.

[6] = system: Sprague-Dawley rats; assay: Single oral dose lipid panel in rats; format: in vivo, rat; conditions: fasted rats, single oral dose 60 mg/kg, after 24 hours
Experimental: Blood samples were collected at baseline (pre-dose) and approximately 24 hours following dosing to determine levels of cholesterol, HDL, LDL and the LDL/HDL ratio.

[7] = orally three times a week for 8 weeks

PHD1, sequence (Q96KS0 whole entry): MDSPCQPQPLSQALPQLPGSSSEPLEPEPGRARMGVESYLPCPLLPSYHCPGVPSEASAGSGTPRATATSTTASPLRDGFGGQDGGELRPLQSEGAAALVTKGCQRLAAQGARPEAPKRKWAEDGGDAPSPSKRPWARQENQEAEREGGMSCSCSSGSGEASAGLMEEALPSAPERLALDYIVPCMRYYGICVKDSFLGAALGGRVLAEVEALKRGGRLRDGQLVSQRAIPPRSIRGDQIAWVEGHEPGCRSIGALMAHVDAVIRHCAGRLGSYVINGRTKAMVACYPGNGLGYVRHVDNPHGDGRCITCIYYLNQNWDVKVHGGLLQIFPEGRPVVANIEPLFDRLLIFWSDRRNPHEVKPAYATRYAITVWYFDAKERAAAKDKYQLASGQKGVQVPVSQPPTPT
PHD3, sequence (Q9H6Z9 whole entry): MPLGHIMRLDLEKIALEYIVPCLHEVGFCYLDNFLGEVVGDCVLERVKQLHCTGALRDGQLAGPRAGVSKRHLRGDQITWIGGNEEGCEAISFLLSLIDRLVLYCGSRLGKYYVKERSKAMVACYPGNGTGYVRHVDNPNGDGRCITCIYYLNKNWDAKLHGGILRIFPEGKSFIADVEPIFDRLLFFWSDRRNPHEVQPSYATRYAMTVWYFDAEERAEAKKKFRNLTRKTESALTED

With `Cc1nc(C(=O)NCC(=O)O)c(O)c2ccc(Oc3ccccc3)cc12` [Compound A, [(4-Hydroxy-1-methyl-7-phenoxy-isoquinoline-3-carbonyl)-amino]-acetic acid] the IC50 [1] was 200 to 2000 nM, the “Mean BL LDL-C” value ([2]; baseline (pre-treatment)) was 102.60 mg/dL and the “Mean BL Total Cholesterol” value ([2]; baseline (pre-treatment)) was 166.84 mg/dL. The “Cholesterol total % change” value [2, 7] was −18.5%, the Cholesterol total change [2, 7] was -33.9 mg/dL and the HDL-C [2, 7] was “decreased”. For the same compound, the “LDL Cholesterol % change” value [2, 7] was −23.2%, the “LDL cholesterol change” value [2, 7] was -27.9 mg/dL and the “percentage of subjects who achieved Hb response (Hb increase of >1 g/dL from baseline Hb)” value [2, 7] was 86.4%. The “mean total cholesterol over the course of treatment” value ([2]; subjects stratified by BL total cholesterol ≦200 (n=48) or >200 mg/dL (n=13), FIG. 14) was “reduction”, the “mean LDL-C over the course of treatment” value ([2]; subjects stratified by BL total cholesterol ≦200 (n=48) or >200 mg/dL (n=13), FIG. 15) was “reduction” and the “3-hydroxy-3-methylglutaryl-Coenzyme A reductase (Hmgcr) RNA expression” value ([3]; 4 h) was 0.45 fold-change. For the same compound, the “3-hydroxy-3-methylglutaryl-Coenzyme A synthase 1 (Hmgcs1) RNA expression” value ([3]; 4 h) was 0.94 fold-change, the “7-dehydrocholesterol reductase (Dhcr7) RNA expression” value ([3]; 4 h) was 1.03 fold-change and the “NAD(P) dependent steroid dehydrogenase-like (Nsdhl) RNA expression” value ([3]; 4 h) was 0.86 fold-change. For the same compound, the “acetyl-Coenzyme A acetyltransferase 2 (Acat2) RNA expression” value ([3]; 4 h) was 1.24 fold-change, the “cytochrome P450, family 51 (Cyp51) RNA expression” value ([3]; 4 h) was 0.69 fold-change and the “farnesyl diphosphate farnesyl transferase 1 (Fdft1) RNA expression” value ([3]; 4 h) was 0.68 fold-change. For the same compound, the “farnesyl diphosphate synthetase (Fdps) RNA expression” value ([3]; 4 h) was 0.87 fold-change, the “isopentenyl-diphosphate delta isomerase (Idi1) RNA expression” value ([3]; 4 h) was 0.73 fold-change and the “lanosterol synthase (Lss) RNA expression” value ([3]; 4 h) was 0.74 fold-change. The “mevalonate (diphospho) decarboxylase (Mvd) RNA expression” value ([3]; 4 h) was 0.68 fold-change, the “mevalonate kinase (Mvk) RNA expression” value ([3]; 4 h) was 1.00 fold-change and the “phosphomevalonate kinase (Pmvk) RNA expression” value ([3]; 4 h) was 1.27 fold-change. For the same compound, the “squalene epoxidase (Sqle) RNA expression” value ([3]; 4 h) was 0.61 fold-change, the “sterol-C4-methyl oxidase-like (Sc4mol) RNA expression” value ([3]; 4 h) was 0.63 fold-change and the “sterol-C5-desaturase (fungal ERG3, delta-5-desaturase) homolog (S. cerevisae) (Sc5d) RNA expression” value ([3]; 4 h) was 1.09 fold-change. The “3-hydroxy-3-methylglutaryl-Coenzyme A reductase (Hmgcr) RNA expression” value ([3]; 8 h) was 0.43 fold-change, the “3-hydroxy-3-methylglutaryl-Coenzyme A synthase 1 (Hmgcs1) RNA expression” value ([3]; 8 h) was 0.38 fold-change and the “7-dehydrocholesterol reductase (Dhcr7) RNA expression” value ([3]; 8 h) was 0.61 fold-change. The “NAD(P) dependent steroid dehydrogenase-like (Nsdhl) RNA expression” value ([3]; 8 h) was 0.62 fold-change, the “acetyl-Coenzyme A acetyltransferase 2 (Acat2) RNA expression” value ([3]; 8 h) was 0.50 fold-change and the “cytochrome P450, family 51 (Cyp51) RNA expression” value ([3]; 8 h) was 0.45 fold-change. The “farnesyl diphosphate farnesyl transferase 1 (Fdft1) RNA expression” value ([3]; 8 h) was 0.43 fold-change, the “farnesyl diphosphate synthetase (Fdps) RNA expression” value ([3]; 8 h) was 0.36 fold-change and the “isopentenyl-diphosphate delta isomerase (Idi1) RNA expression” value ([3]; 8 h) was 0.51 fold-change. For the same compound, the “lanosterol synthase (Lss) RNA expression” value ([3]; 8 h) was 0.44 fold-change, the “mevalonate (diphospho) decarboxylase (Mvd) RNA expression” value ([3]; 8 h) was 0.37 fold-change and the “mevalonate kinase (Mvk) RNA expression” value ([3]; 8 h) was 0.53 fold-change. The “phosphomevalonate kinase (Pmvk) RNA expression” value ([3]; 8 h) was 0.63 fold-change, the “squalene epoxidase (Sqle) RNA expression” value ([3]; 8 h) was 0.43 fold-change and the “sterol-C4-methyl oxidase-like (Sc4mol) RNA expression” value ([3]; 8 h) was 0.46 fold-change. The “sterol-C5-desaturase (fungal ERG3, delta-5-desaturase) homolog (S. cerevisae) (Sc5d) RNA expression” value ([3]; 8 h) was 0.38 fold-change, the IC50 [4] was 200 to 2000 nM and the “total cholesterol levels compared to vehicle treated” value [5] was “statistically significant decrease in total cholesterol levels”. The “HDL decrease from baseline” value [6] was 21 ± 7 mg/dL, the “LDL decrease from baseline” value [6] was 11 ± 3 mg/dL and the “total cholesterol decrease from baseline” value [6] was 26 ± 9 mg/dL.
